Experimental data taken from patent US7816134B2, “Method of extensive culture of antigen-specific cytotoxic T cells” (Takara Bio Inc., priority 2000, dated 2010).
Where two headings read alike, the source gives them in different places.

What was measured:
[1] = system: HLA-A2.1-having EBV transformed B-cells (221A2.1); details: for Cytotoxic Activity (%) E/T Ratio 1 / Cytotoxic Activity (%) E/T Ratio 3 / Cytotoxic Activity (%) E/T Ratio 10 / Cytotoxic Activity (%) E/T Ratio 2.5 / Cytotoxic Activity (%) E/T Ratio 5: FluMPA2.1
[2] = system: HLA-A2.1-having EBV transformed B-cells (221A2.1); details: for Cytotoxic Activity (%) E/T Ratio 3 / Cytotoxic Activity (%) E/T Ratio 10 / Cytotoxic Activity (%) E/T Ratio 1 / Cytotoxic Activity (%) E/T Ratio 30: FluMPA2.1
[3] = system: anti-influenza virus memory CTLs (FluMPA2.1); format: cell-based, human
[4] = Example 1-3, sample 10 μg/ml during CTL induction +, during culture with IL-2 +, peptide addition +
[5] = Example 1-3, sample 10 μg/ml during CTL induction +, during culture with IL-2 +, peptide addition −
[6] = Example 1-5, sample during CTL induction −, during culture with IL-2 + (10 μg/ml), peptide addition +
[7] = Example 1-5, sample during CTL induction −, during culture with IL-2 + (10 μg/ml), peptide addition −
[8] = sample 10 μg/ml only during continuous culture
[9] = Example 2-4, sample 10 μg/ml during CTL induction +, during expansion +, peptide addition +
[10] = Example 2-4, sample 10 μg/ml during CTL induction +, during expansion +, peptide addition −
[11] = Example 2-6, sample during CTL induction −, during expansion + (10 μg/ml), peptide addition +
[12] = Example 2-6, sample during CTL induction −, during expansion + (10 μg/ml), peptide addition −
[13] = Example 2-4, sample 10 μg/ml during CTL induction +, during expansion +
[14] = Example 2-6, sample during CTL induction −, during expansion + (10 μg/ml)
[15] = Example 1-2, sample 10 μg/ml during CTL induction +, during culture with IL-2 +, peptide addition +
[16] = Example 1-2, sample 10 μg/ml during CTL induction +, during culture with IL-2 +, peptide addition −
[17] = sample 10 μg/ml during CTL induction and during continuous culture, 10 to 14 days
[18] = Example 2-3, sample 10 μg/ml during CTL induction +, during expansion +, peptide addition +
[19] = Example 2-3, sample 10 μg/ml during CTL induction +, during expansion +, peptide addition −
[20] = Example 2-7, sample 10 μg/ml during CTL induction +, during expansion +, peptide addition +
[21] = Example 2-7, sample 10 μg/ml during CTL induction +, during expansion +, peptide addition −
[22] = Example 2-7, sample 10 μg/ml during CTL induction +, during expansion −, peptide addition +
[23] = Example 2-7, sample 10 μg/ml during CTL induction +, during expansion −, peptide addition −
[24] = Example 1-4, sample 10 μg/ml during CTL induction +, during culture with IL-2 +, peptide addition +
[25] = Example 1-4, sample 10 μg/ml during CTL induction +, during culture with IL-2 +, peptide addition −

non-swellable alginic acid
Cytotoxic Activity (%) E/T Ratio 1 [1, 4]: 28.1% | Cytotoxic Activity (%) E/T Ratio 3 [1, 4]: 52.7% | Cytotoxic Activity (%) E/T Ratio 10 [1, 4]: 77.1% | Cytotoxic Activity (%) E/T Ratio 1 [1, 5]: 12.9% | Cytotoxic Activity (%) E/T Ratio 3 [1, 5]: 24.8% | Cytotoxic Activity (%) E/T Ratio 10 [1, 5]: 14.0% | Cytotoxic Activity (%) E/T Ratio 1 [1, 6]: 9.5% | Cytotoxic Activity (%) E/T Ratio 3 [1, 6]: 13.8% | Cytotoxic Activity (%) E/T Ratio 10 [1, 6]: 24.9% | Cytotoxic Activity (%) E/T Ratio 1 [1, 7]: 3.9% | Cytotoxic Activity (%) E/T Ratio 3 [1, 7]: 4.6% | Cytotoxic Activity (%) E/T Ratio 10 [1, 7]: 6.1% | cytotoxic activity after continuous culture (in words) [1, 8]: maintaining an antigen-specific cytotoxic activity | Cytotoxic Activity (%) E/T Ratio 3 [2, 9]: 63.5% | Cytotoxic Activity (%) E/T Ratio 10 [2, 9]: 81.4% | Cytotoxic Activity (%) E/T Ratio 3 [2, 10]: 26.2% | Cytotoxic Activity (%) E/T Ratio 10 [2, 10]: 26.8% | Cytotoxic Activity (%) E/T Ratio 1 [2, 11]: 13.5% | Cytotoxic Activity (%) E/T Ratio 3 [2, 11]: 24.1% | Cytotoxic Activity (%) E/T Ratio 10 [2, 11]: 50.4% | Cytotoxic Activity (%) E/T Ratio 30 [2, 11]: 76.0% | Cytotoxic Activity (%) E/T Ratio 1 [2, 12]: 0.5% | Cytotoxic Activity (%) E/T Ratio 3 [2, 12]: 5.2% | Cytotoxic Activity (%) E/T Ratio 10 [2, 12]: 6.5% | Cytotoxic Activity (%) E/T Ratio 30 [2, 12]: 14.4% | Expansion Ratio [3, 13]: × 220 | Expansion Ratio [3, 14]: × 335

CC1OC(OC2C(OC3C(OC4C(OS(=O)(=O)O)C(C)OC(O)C4OS(=O)(=O)O)OC(C)C(OS(=O)(=O)O)C3OC3OC(C)C(OS(=O)(=O)O)C(OS(=O)(=O)O)C3OS(=O)(=O)O)OC(C)C(OS(=O)(=O)O)C2OC2OC(C)C(OS(=O)(=O)O)C(OC3OC(C)C(OS(=O)(=O)O)C(O)C3OS(=O)(=O)O)C2OS(=O)(=O)O)C(O)C(OS(=O)(=O)O)C1O (centres unmarked) [7-12SFd-F]
Cytotoxic Activity (%) E/T Ratio 1 [1, 15]: 12.0% | Cytotoxic Activity (%) E/T Ratio 3 [1, 15]: 37.9% | Cytotoxic Activity (%) E/T Ratio 10 [1, 15]: 60.7% | Cytotoxic Activity (%) E/T Ratio 1 [1, 16]: 0.3% | Cytotoxic Activity (%) E/T Ratio 3 [1, 16]: 2.2% | Cytotoxic Activity (%) E/T Ratio 10 [1, 16]: 11.7% | cytotoxic activity after continuous culture (in words) [1, 17]: maintaining an antigen-specific cytotoxic activity | Cytotoxic Activity (%) E/T Ratio 3 [2, 18]: 67.0% | Cytotoxic Activity (%) E/T Ratio 10 [2, 18]: 93.7% | Cytotoxic Activity (%) E/T Ratio 3 [2, 19]: 2.8% | Cytotoxic Activity (%) E/T Ratio 10 [2, 19]: 0% | Cytotoxic Activity (%) E/T Ratio 1 [2, 11]: 14.1% | Cytotoxic Activity (%) E/T Ratio 3 [2, 11]: 20.1% | Cytotoxic Activity (%) E/T Ratio 10 [2, 11]: 41.7% | Cytotoxic Activity (%) E/T Ratio 30 [2, 11]: 64.6% | Cytotoxic Activity (%) E/T Ratio 1 [2, 12]: 2.7% | Cytotoxic Activity (%) E/T Ratio 3 [2, 12]: 0% | Cytotoxic Activity (%) E/T Ratio 10 [2, 12]: 1.0% | Cytotoxic Activity (%) E/T Ratio 30 [2, 12]: 3.5% | Cytotoxic Activity (%) E/T Ratio 1 [2, 20]: 9.4% | Cytotoxic Activity (%) E/T Ratio 3 [2, 20]: 23.4% | Cytotoxic Activity (%) E/T Ratio 10 [2, 20]: 44.2% | Cytotoxic Activity (%) E/T Ratio 30 [2, 20]: 82.1% | Cytotoxic Activity (%) E/T Ratio 1 [2, 21]: 0% | Cytotoxic Activity (%) E/T Ratio 3 [2, 21]: 0% | Cytotoxic Activity (%) E/T Ratio 10 [2, 21]: 0% | Cytotoxic Activity (%) E/T Ratio 30 [2, 21]: 1.6% | Cytotoxic Activity (%) E/T Ratio 1 [2, 22]: 14.0% | Cytotoxic Activity (%) E/T Ratio 3 [2, 22]: 34.6% | Cytotoxic Activity (%) E/T Ratio 10 [2, 22]: 50.4% | Cytotoxic Activity (%) E/T Ratio 30 [2, 22]: 83.5% | Cytotoxic Activity (%) E/T Ratio 1 [2, 23]: 6.7% | Cytotoxic Activity (%) E/T Ratio 3 [2, 23]: 6.5% | Cytotoxic Activity (%) E/T Ratio 10 [2, 23]: 9.3% | Cytotoxic Activity (%) E/T Ratio 30 [2, 23]: 9.8% | cytotoxic activity after expansion for 14 days (in words) ([2]; sample 10 μg/ml during CTL induction and during expansion, no EBV-B cells): maintained specific, high cytotoxic activity | Expansion Ratio ([3]; Example 2-3, sample 10 μg/ml during CTL induction +, during expansion +, 14 days): × 178 | Expansion Ratio [3, 14]: × 310 | Expansion Ratio ([3]; Example 2-7, sample 10 μg/ml during CTL induction +, during expansion +): × 258 | Expansion Ratio ([3]; Example 2-7, sample 10 μg/ml during CTL induction +, during expansion −): × 283

sodium chondroitin sulfate B
Cytotoxic Activity (%) E/T Ratio 2.5 [1, 24]: 28.1% | Cytotoxic Activity (%) E/T Ratio 5 [1, 24]: 38.1% | Cytotoxic Activity (%) E/T Ratio 10 [1, 24]: 60.7% | Cytotoxic Activity (%) E/T Ratio 2.5 [1, 25]: 0% | Cytotoxic Activity (%) E/T Ratio 5 [1, 25]: 0% | Cytotoxic Activity (%) E/T Ratio 10 [1, 25]: 0.8% | Cytotoxic Activity (%) E/T Ratio 10 [1, 6]: 24.0% | Cytotoxic Activity (%) E/T Ratio 10 [1, 7]: 4.6% | cytotoxic activity after continuous culture (in words) [1, 17]: effects for maintaining cytotoxic activity | cytotoxic activity after continuous culture (in words) [1, 8]: maintaining an antigen-specific cytotoxic activity | Cytotoxic Activity (%) E/T Ratio 3 [2, 9]: 57.8% | Cytotoxic Activity (%) E/T Ratio 10 [2, 9]: 98.2% | Cytotoxic Activity (%) E/T Ratio 3 [2, 10]: 1.0% | Cytotoxic Activity (%) E/T Ratio 10 [2, 10]: 10.7% | Cytotoxic Activity (%) E/T Ratio 1 [2, 11]: 15.2% | Cytotoxic Activity (%) E/T Ratio 3 [2, 11]: 27.2% | Cytotoxic Activity (%) E/T Ratio 10 [2, 11]: 48.1% | Cytotoxic Activity (%) E/T Ratio 30 [2, 11]: 76.2% | Cytotoxic Activity (%) E/T Ratio 1 [2, 12]: 3.9% | Cytotoxic Activity (%) E/T Ratio 3 [2, 12]: 4.4% | Cytotoxic Activity (%) E/T Ratio 10 [2, 12]: 8.3% | Cytotoxic Activity (%) E/T Ratio 30 [2, 12]: 11.8% | Expansion Ratio [3, 13]: × 178 | Expansion Ratio [3, 14]: × 383

sodium salt of sulfated fucose
Cytotoxic Activity (%) E/T Ratio 2.5 [1, 24]: 17.6% | Cytotoxic Activity (%) E/T Ratio 5 [1, 24]: 36.6% | Cytotoxic Activity (%) E/T Ratio 10 [1, 24]: 55.3% | Cytotoxic Activity (%) E/T Ratio 2.5 [1, 25]: 0% | Cytotoxic Activity (%) E/T Ratio 5 [1, 25]: 0% | Cytotoxic Activity (%) E/T Ratio 10 [1, 25]: 0.2% | Cytotoxic Activity (%) E/T Ratio 1 [1, 6]: 8.9% | Cytotoxic Activity (%) E/T Ratio 3 [1, 6]: 12.6% | Cytotoxic Activity (%) E/T Ratio 10 [1, 6]: 26.4% | Cytotoxic Activity (%) E/T Ratio 1 [1, 7]: 0% | Cytotoxic Activity (%) E/T Ratio 3 [1, 7]: 0.4% | Cytotoxic Activity (%) E/T Ratio 10 [1, 7]: 3.3% | cytotoxic activity after continuous culture (in words) [1, 17]: effects for maintaining cytotoxic activity | cytotoxic activity after continuous culture (in words) [1, 8]: maintaining an antigen-specific cytotoxic activity | Cytotoxic Activity (%) E/T Ratio 10 [2, 9]: 70.2% | Cytotoxic Activity (%) E/T Ratio 10 [2, 10]: 23.3% | Cytotoxic Activity (%) E/T Ratio 10 [2, 11]: 32.5% | Cytotoxic Activity (%) E/T Ratio 30 [2, 11]: 64.9% | Cytotoxic Activity (%) E/T Ratio 10 [2, 12]: 0% | Cytotoxic Activity (%) E/T Ratio 30 [2, 12]: 1.3% | Expansion Ratio [3, 13]: × 240 | Expansion Ratio [3, 14]: × 448

pectic acid
Cytotoxic Activity (%) E/T Ratio 2.5 [1, 24]: 32.0% | Cytotoxic Activity (%) E/T Ratio 5 [1, 24]: 49.4% | Cytotoxic Activity (%) E/T Ratio 2.5 [1, 25]: 3.4% | Cytotoxic Activity (%) E/T Ratio 5 [1, 25]: 5.5% | Cytotoxic Activity (%) E/T Ratio 10 [1, 6]: 16.5% | Cytotoxic Activity (%) E/T Ratio 10 [1, 7]: 0% | cytotoxic activity after continuous culture (in words) [1, 17]: effects for maintaining cytotoxic activity | cytotoxic activity after continuous culture (in words) [1, 8]: maintaining an antigen-specific cytotoxic activity | Cytotoxic Activity (%) E/T Ratio 3 [2, 9]: 47.0% | Cytotoxic Activity (%) E/T Ratio 10 [2, 9]: 69.8% | Cytotoxic Activity (%) E/T Ratio 3 [2, 10]: 11.6% | Cytotoxic Activity (%) E/T Ratio 10 [2, 10]: 7.3% | Cytotoxic Activity (%) E/T Ratio 1 [2, 11]: 18.2% | Cytotoxic Activity (%) E/T Ratio 3 [2, 11]: 33.3% | Cytotoxic Activity (%) E/T Ratio 10 [2, 11]: 64.2% | Cytotoxic Activity (%) E/T Ratio 30 [2, 11]: 87.8% | Cytotoxic Activity (%) E/T Ratio 1 [2, 12]: 2.3% | Cytotoxic Activity (%) E/T Ratio 3 [2, 12]: 4.1% | Cytotoxic Activity (%) E/T Ratio 10 [2, 12]: 8.2% | Cytotoxic Activity (%) E/T Ratio 30 [2, 12]: 15.9% | Expansion Ratio [3, 13]: × 160 | Expansion Ratio [3, 14]: × 350

sodium chondroitin sulfate A
Cytotoxic Activity (%) E/T Ratio 10 [1, 4]: 75.5% | Cytotoxic Activity (%) E/T Ratio 10 [1, 5]: 21.1% | cytotoxic activity after continuous culture (in words) [1, 17]: continuous culture of CTLs having an antigen-specific cytotoxic activity can be carried out | Cytotoxic Activity (%) E/T Ratio 3 [2, 9]: 56.7% | Cytotoxic Activity (%) E/T Ratio 10 [2, 9]: 89.0% | Cytotoxic Activity (%) E/T Ratio 3 [2, 10]: 0% | Cytotoxic Activity (%) E/T Ratio 10 [2, 10]: 5.3% | Cytotoxic Activity (%) E/T Ratio 1 [2, 11]: 8.0% | Cytotoxic Activity (%) E/T Ratio 3 [2, 11]: 18.7% | Cytotoxic Activity (%) E/T Ratio 10 [2, 11]: 36.6% | Cytotoxic Activity (%) E/T Ratio 30 [2, 11]: 67.6% | Cytotoxic Activity (%) E/T Ratio 1 [2, 12]: 6.3% | Cytotoxic Activity (%) E/T Ratio 3 [2, 12]: 5.6% | Cytotoxic Activity (%) E/T Ratio 10 [2, 12]: 7.5% | Cytotoxic Activity (%) E/T Ratio 30 [2, 12]: 18.8% | Expansion Ratio [3, 13]: × 280 | Expansion Ratio [3, 14]: × 383
